Read-outs that look alike come from different tables or passages of the source.
Legend:
[1] = tested on: a variety of human and mouse cell lines and in a panel of 60 human cell lines; assay: Cytotoxicity under continuous drug exposure (growth inhibition); format: cell-based; settings: continuous drug exposure over approx. 5 cell doubling times; range over the cell lines
Experimental: The latter value compared with 2 µM for the 4-pyridyl-quinoline analogue, 0.76 µM for amsacrine, 0.1 µM for the amsacrine analogue 4'-(9-[4-[N-methylcarboxamido]-5-methyl]-acridinylamino)-methanesulphon-m-anisidide ("CI-921") and 81 µM for etoposide.

[2] = tested on: human melanoma cell line designated WADH; assay: Tumour growth delay, human melanoma xenograft in nude mice; format: in vivo, nude (athymic) mice; settings: tumours 4-7 mm; ip divided dose 2 x 100 mg/kg at 0 and 60 min, repeated after 7 days
Experimental: Colon 38 carcinoma was obtained from the Mason Research Institute (Worchester, MA, USA) and was grown in BDF1 hosts. Tumour fragments (1 mm^3) were implanted subcutaneously in anaesthetised mice. Tumours had grown to the appropriate size 9 days after implantation. A melanoma tumour line (WADH) was developed in the Cancer Research Laboratory. Tumour cells were grown in culture and 1 x 10^6 cells were implanted intradermally into the flank of nude (C57BI/J genetic background) mice. Mice were grown under sterile surroundings until tumours were of appropriate size.
Tumours were measured 3x (colon 38) or 2x (xeno-graft) weekly with callipers and tumour volumes calculated as 0.52a^2b, where a and b were the minor and major tumour axes. Tumour growth delays were measured at a time when tumour volumes of treated and control animals had increased by 4-fold.
A further experiment was carried out using human melanoma line, implanted subcutaneously in nude (athymic) mice using an inoculation of one million cells of a human melanoma cell line designated WADH. Treatment was started when the tumours were 4-7 mm in diameter. DACA was administered ip as a divided dose (2 x 100 mg/kg body weight at 0 and 60 min) and a second similar administra-tion (2 x 100 mg/kg) was given after 7 days. A growth delay of 30 days was obtained (Figure 6).

[3] = Pharmacokinetic and tissue distribution studies (tritium label, HPLC); format: in vivo; settings: for tissue concentration: 1 h after intraperitoneal 400 µmol/kg, HPLC; for AUC: ip, 400 umol/kg, intraperitoneal 400 µmol/kg
Excerpt: We believe that administration of DACA at the new divided dose-high constituent dose frequency regime mentioned above will be helpful in combating brain tumours.

CEM-CCRF = assay: Growth inhibition of leukaemia line, continuous exposure, MTT staining; format: cell-based; settings: Homo sapiens
Experimental: (§1) Tumour cell lines were cultured in 96-well plates. […] Primary cultures were incubated at 37°C in sealed perspex boxes containing a humidified atmosphere of 5% CO2 and 5% O2 in nitrogen for 7 days. 5-Methyl-[^3H]-thymidine (20 Ci.mmol^-1; 0.04 µCi per well), thymidine and 5-fluorodeoxyuridine (each at final concentrations of 0.5 µM) were added in medium to cultures (20 µl per well) 24 h before terminating the cultures.
(§2) 1989, 81:1088-1092, where growth, as indicated by staining or thymidine incorporation, corresponded to 50% of that of the control cultures.
(§3) The effect of DACA on the growth of cultured cells was assessed by continuous drug exposure. […] These values were similar to those of other human leukaemia cell lines, which ranged from 290 to 760 nM (CEM-CCRF, 410 nM; MOLT-4, 290 nM; Daudi, 400 nM; Raji, 370 nM, U937, 590 nM; HL-60, 620 nM; K-562, 760 nM). Four multidrug-resistant cell lines, developed from JL and JB1 by in vitro exposure to increasing concentrations of doxorubicin (LD and B1D) or amsacrine (LA and B1A) (Finlay G.J., et al., J. Natl. Cancer Inst. 1990, 82, 662-667, Snow K., et al., Br. J. Cancer 1991, 63, 17-28) were tested.

Daudi = assay: as above; format: cell-based; settings: Homo sapiens
Experimental: as §1, §2, §3

HL-60 = assay: as above; format: cell-based; settings: Homo sapiens
Experimental: as §1, §2, §3

K-562 = assay: as above; format: cell-based; settings: Homo sapiens, K562
Experimental: as §1, §2, §3

MOLT-4 = assay: as above; format: cell-based; settings: Homo sapiens
Experimental: as §1, §2, §3

Raji = assay: as above; format: cell-based; settings: Homo sapiens
Experimental: as §1, §2, §3

[4] = tested on: human Jurkat T cell leukaemia line, diploid (L); assay: as above; format: cell-based; settings: continuous drug exposure
Experimental: as §1, §2, §3

[5] = tested on: human Jurkat T cell leukaemia line, tetraploid (B1); assay: as above; format: cell-based; settings: continuous drug exposure
Experimental: as §1, §2, §3

[6] = tested on: other human leukaemia cell lines; assay: Growth inhibition of leukaemia lines, continuous exposure, MTT staining; format: cell-based; settings: range over other human leukaemia cell lines
Experimental: as §1, §2, §3

[7] = tested on: panel of cell lines encompassing a number of tumour types; assay: NCI cell line panel, growth inhibition by protein staining; format: cell-based; settings: data provided by the National Cancer Institute
Experimental: Tumour cell lines were cultured in 96-well plates. Growth of NCI cell lines was assessed using sulpho-rhodamine B staining (Skehan P., et al., J. Natl. Cancer Inst. 1990, 82, 1107-1112), that of the leukaemia lines with (4,5-dimethylthiazole-2-yl)-2,5-diphenyltetrazolium (MTT) staining (Mosmann T., J. Immun. Methods 1983, 65, 55-63) and that of the primary human tumour material by ^3H-thymidine incorporation (Marshall E.S., et al., J. Natl. Cancer Inst. 1992, 84, 341-344). Primary tumour material was cultured in 96-well plates in which the wells were coated with agarose to inhibit selectively the growth of normal cells. (Marshall E.S., et al., J. Natl. Cancer Inst. 1992, 84, 341-344). Primary cultures were incubated at 37°C in sealed perspex boxes containing a humidified atmosphere of 5% CO2 and 5% O2 in nitrogen for 7 days. 5-Methyl-[^3H]-thymidine (20 Ci.mmol^-1; 0.04 µCi per well), thymidine and 5-fluorodeoxyuridine (each at final concentrations of 0.5 µM) were added in medium to cultures (20 µl per well) 24 h before terminating the cultures. Cells were aspirated on to glass fibre filters using a multiple automated sample harvester (LKB Wallac OY Beta Harvester). The filter discs were washed for 15 seconds with water, dried, and the amount of tritium retained quantified by liquid scintillation.
IC50 values were defined as in Paull K.D., et al., J. Natl. Cancer Inst. 1989, 81:1088-1092, where growth, as indicated by staining or thymidine incorporation, corresponded to 50% of that of the control cultures. […] Variances of DELTA values were expressed as standard deviations in log10 units. Comparison of DELTA values was made using Pearson correlation coefficients. Resistance factors were defined as the ratios of IC50 values between the resistant line and the parent line. Statistical evaluation was performed either with NCI programmes, with RS/1 software (BBN Research Systems, Cambridge, MA, USA), or with Sigmaplot (Jandel Scientific, San Rafael, CA, USA).

In the case of `CN(C)CCNC(=O)c1cccc2cc3ccccc3nc12` [DACA, N-[2-(dimethylamino)ethyl]acridine-4-carboxamide], the IC50 [1] is reported as 90 to 3400 nM, the Growth delay [2] is reported as 30 days and the tissue concentration ([3]; brain) is reported as 45 µmol/kg. For the same compound, the tissue concentration ([3]; heart) was 57 µmol/kg, the AUC ([3]; brain, read-out: AUC) was 218 µM·h and the AUC ([3]; heart, read-out: AUC) was 147 µM·h. The AUC ([3]; kidney, read-out: AUC) was 492 µM·h, the AUC ([3]; liver, read-out: AUC) was 547 µM·h and the AUC ([3]; plasma, read-out: plasma AUC) was 26.6 µM·h. The tissue concentration ([3]; kidney) was 139 µmol/kg, the tissue concentration ([3]; liver) was 185 µmol/kg and the “elimination t1/2” value ([3]; tritium-labelled DACA, tissues including brain) was 37 to 176 h. It also gave an IC50 (CEM-CCRF) of 410 nM, an IC50 (Daudi) of 400 nM and an IC50 (HL-60) of 620 nM. For the same compound, the IC50 (K-562) was 760 nM, the IC50 (MOLT-4) was 290 nM and the IC50 (Raji) was 370 nM. It also gave an IC50 [4] of 380 nM, an IC50 [5] of 380 nM and an IC50 [6] of 290 to 760 nM. The IC50 [7] was 2100 nM.

— patent publication EP0642343B1, “Acridine carboxamides for the treatment of cancer” (XENOVA LIMITED, priority 1992, dated 1993)
